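Assay format: 96-well plates, 48-hour exposure. Here, GI50 denotes the concentration required for 50% inhibition of growth. At the TGI there is no net growth.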
Legend:
Test in all cases: NCI-60 cell line screen, 48 h
RPMI-8226 leukemia = system: RPMI-8226 leukemia
786-0 renal = system: 786-0 renal
CCRF-CEM leukemia = system: CCRF-CEM leukemia
UO-31 renal = system: UO-31 renal
DU-145 prostate = system: DU-145 prostate
HCT-116 colon = system: HCT-116 colon
HCT-15 colon = system: HCT-15 colon
OVCAR-8 ovarian = system: OVCAR-8 ovarian
TK-10 renal = system: TK-10 renal
SK-OV-3 ovarian = system: SK-OV-3 ovarian
MOLT-4 leukemia = system: MOLT-4 leukemia
SK-MEL-5 melanoma = system: SK-MEL-5 melanoma
BT-549 breast = system: BT-549 breast
A498 renal = system: A498 renal
SF-539 CNS = system: SF-539 CNS
SK-MEL-2 melanoma = system: SK-MEL-2 melanoma
MCF7 breast = system: MCF7 breast
EKVX NSCLC = system: EKVX NSCLC
SK-MEL-28 melanoma = system: SK-MEL-28 melanoma
RXF 393 renal = system: RXF 393 renal
COLO 205 colon = system: COLO 205 colon
OVCAR-4 ovarian = system: OVCAR-4 ovarian
M14 melanoma = system: M14 melanoma
IGROV1 ovarian = system: IGROV1 ovarian
HL-60(TB) leukemia = system: HL-60(TB) leukemia
SF-295 CNS = system: SF-295 CNS
NCI/ADR-RES ovarian = system: NCI/ADR-RES ovarian
SNB-75 CNS = system: SNB-75 CNS
KM12 colon = system: KM12 colon
NCI-H23 lung = system: NCI-H23 lung
NCI-H226 lung = system: NCI-H226 lung
HOP-62 NSCLC = system: HOP-62 NSCLC
HCC-2998 colon = system: HCC-2998 colon
LOX IMVI melanoma = system: LOX IMVI melanoma
HS 578T breast = system: HS 578T breast
UACC-257 melanoma = system: UACC-257 melanoma
NCI-H460 lung = system: NCI-H460 lung
SW-620 colon = system: SW-620 colon
CAKI-1 renal = system: CAKI-1 renal
ACHN renal = system: ACHN renal
T-47D breast = system: T-47D breast
MDA-MB-231 breast = system: MDA-MB-231 breast
MDA-MB-435 = system: MDA-MB-435
SF-268 CNS = system: SF-268 CNS
SR leukemia = system: SR leukemia
HOP-92 NSCLC = system: HOP-92 NSCLC
SNB-19 CNS = system: SNB-19 CNS
PC-3 prostate = system: PC-3 prostate
HT29 colon = system: HT29 colon
U251 CNS = system: U251 CNS
UACC-62 melanoma = system: UACC-62 melanoma
K-562 leukemia = system: K-562 leukemia
MALME-3M melanoma = system: MALME-3M melanoma
OVCAR-5 ovarian = system: OVCAR-5 ovarian
OVCAR-3 ovarian = system: OVCAR-3 ovarian
SN12C renal = system: SN12C renal
NCI-H522 lung = system: NCI-H522 lung
A549 NSCLC = system: A549 NSCLC

CCOC(=O)c1nc2ccc(C(F)(F)F)cc2nc1Oc1ccc(F)cc1
TGI (RPMI-8226 leukemia): > 100 µM | TGI (786-0 renal): > 100 µM | TGI (CCRF-CEM leukemia): > 100 µM | TGI (UO-31 renal): > 100 µM | TGI (DU-145 prostate): > 100 µM | TGI (HCT-116 colon): > 100 µM | TGI (HCT-15 colon): > 100 µM | TGI (OVCAR-8 ovarian): > 100 µM | TGI (TK-10 renal): > 100 µM | TGI (SK-OV-3 ovarian): > 100 µM | TGI (MOLT-4 leukemia): > 100 µM | TGI (SK-MEL-5 melanoma): > 100 µM | TGI (BT-549 breast): > 100 µM | TGI (A498 renal): > 100 µM | TGI (SF-539 CNS): > 100 µM | TGI (SK-MEL-2 melanoma): > 100 µM | TGI (MCF7 breast): > 100 µM | TGI (EKVX NSCLC): > 100 µM | TGI (SK-MEL-28 melanoma): > 100 µM | TGI (RXF 393 renal): > 100 µM | TGI (COLO 205 colon): > 100 µM | TGI (OVCAR-4 ovarian): > 100 µM | TGI (M14 melanoma): > 100 µM | TGI (IGROV1 ovarian): > 100 µM | TGI (HL-60(TB) leukemia): > 100 µM | TGI (SF-295 CNS): > 100 µM | TGI (NCI/ADR-RES ovarian): > 100 µM | TGI (SNB-75 CNS): > 100 µM | TGI (KM12 colon): > 100 µM | TGI (NCI-H23 lung): > 100 µM | TGI (NCI-H226 lung): > 100 µM | TGI (HOP-62 NSCLC): > 100 µM | TGI (HCC-2998 colon): > 100 µM | TGI (LOX IMVI melanoma): > 100 µM | TGI (HS 578T breast): > 100 µM | TGI (UACC-257 melanoma): > 100 µM | TGI (NCI-H460 lung): > 100 µM | TGI (SW-620 colon): > 100 µM | TGI (CAKI-1 renal): > 100 µM | TGI (ACHN renal): > 100 µM | TGI (T-47D breast): > 100 µM | TGI (MDA-MB-231 breast): > 100 µM | TGI (MDA-MB-435): > 100 µM | TGI (SF-268 CNS): > 100 µM | TGI (SR leukemia): > 100 µM | TGI (HOP-92 NSCLC): > 100 µM | TGI (SNB-19 CNS): > 100 µM | TGI (PC-3 prostate): > 100 µM | TGI (HT29 colon): > 100 µM | TGI (U251 CNS): > 100 µM | TGI (UACC-62 melanoma): > 100 µM | TGI (K-562 leukemia): > 100 µM

COc1cc(/C=C/C(=O)c2ccc(Cl)cc2)ccc1OS(=O)(=O)c1ccc(C)cc1
GI50 (RPMI-8226 leukemia): 2.1 µM | TGI (RPMI-8226 leukemia): 4.77 µM | GI50 (786-0 renal): 10.7 µM | TGI (786-0 renal): 24.6 µM | GI50 (CCRF-CEM leukemia): 2.46 µM | TGI (CCRF-CEM leukemia): 7.19 µM | GI50 (UO-31 renal): 6.95 µM | TGI (UO-31 renal): 21.1 µM | GI50 (DU-145 prostate): 16.4 µM | TGI (DU-145 prostate): 45.2 µM | GI50 (HCT-116 colon): 1.76 µM | TGI (HCT-116 colon): 3.71 µM | GI50 (HCT-15 colon): 1.74 µM | TGI (HCT-15 colon): 3.81 µM | GI50 (OVCAR-8 ovarian): 3.23 µM | TGI (OVCAR-8 ovarian): 16 µM | GI50 (SK-OV-3 ovarian): 30.1 µM | TGI (SK-OV-3 ovarian): > 100 µM | GI50 (MALME-3M melanoma): 13.1 µM | TGI (MALME-3M melanoma): 33.6 µM | GI50 (MOLT-4 leukemia): 2.76 µM | TGI (MOLT-4 leukemia): 7.74 µM | GI50 (SK-MEL-5 melanoma): 12.4 µM | TGI (SK-MEL-5 melanoma): 25.1 µM | GI50 (BT-549 breast): 5.64 µM | TGI (BT-549 breast): 18.7 µM | GI50 (A498 renal): 28.8 µM | TGI (A498 renal): > 100 µM | GI50 (SF-539 CNS): 11.2 µM | TGI (SF-539 CNS): 24 µM | GI50 (SK-MEL-2 melanoma): 12.3 µM | TGI (SK-MEL-2 melanoma): 28.8 µM | GI50 (MCF7 breast): 2.56 µM | TGI (MCF7 breast): 25.6 µM | GI50 (SK-MEL-28 melanoma): 18.3 µM | TGI (SK-MEL-28 melanoma): 47.5 µM | GI50 (RXF 393 renal): 13.2 µM | TGI (RXF 393 renal): 29.5 µM | GI50 (COLO 205 colon): 12.3 µM | TGI (COLO 205 colon): 39.7 µM | GI50 (OVCAR-4 ovarian): 12.8 µM | TGI (OVCAR-4 ovarian): 80.1 µM | GI50 (M14 melanoma): 6.35 µM | TGI (M14 melanoma): 23.6 µM | GI50 (IGROV1 ovarian): 14.5 µM | TGI (IGROV1 ovarian): 41.7 µM | GI50 (HL-60(TB) leukemia): 3.29 µM | TGI (HL-60(TB) leukemia): 14.8 µM | GI50 (SF-295 CNS): 9.27 µM | TGI (SF-295 CNS): 26.2 µM | GI50 (NCI/ADR-RES ovarian): 9.38 µM | TGI (NCI/ADR-RES ovarian): 37.7 µM | GI50 (SNB-75 CNS): 31.6 µM | TGI (SNB-75 CNS): > 100 µM | GI50 (KM12 colon): 3.63 µM | TGI (KM12 colon): 13.8 µM | GI50 (NCI-H23 lung): 13.3 µM | TGI (NCI-H23 lung): 43.6 µM | GI50 (NCI-H226 lung): 12.7 µM | TGI (NCI-H226 lung): 27.9 µM | GI50 (OVCAR-5 ovarian): 16.7 µM | TGI (OVCAR-5 ovarian): 33.2 µM | GI50 (HOP-62 NSCLC): 30 µM | TGI (HOP-62 NSCLC): 92 µM | GI50 (HCC-2998 colon): 12.4 µM | TGI (HCC-2998 colon): 26.7 µM | GI50 (LOX IMVI melanoma): 1.93 µM | TGI (LOX IMVI melanoma): 3.67 µM | GI50 (HS 578T breast): 3.99 µM | TGI (HS 578T breast): > 100 µM | GI50 (UACC-257 melanoma): 14 µM | TGI (UACC-257 melanoma): 36.3 µM | GI50 (NCI-H460 lung): 17.3 µM | TGI (NCI-H460 lung): 72.4 µM | GI50 (SW-620 colon): 2.21 µM | TGI (SW-620 colon): 6.01 µM | GI50 (CAKI-1 renal): 11.1 µM | TGI (CAKI-1 renal): 44.4 µM | GI50 (ACHN renal): 9.68 µM | TGI (ACHN renal): 22.2 µM | GI50 (OVCAR-3 ovarian): 3.57 µM | TGI (OVCAR-3 ovarian): 12.6 µM | GI50 (T-47D breast): 9.27 µM | TGI (T-47D breast): 28.6 µM | GI50 (SN12C renal): 10 µM | TGI (SN12C renal): 34.8 µM | GI50 (MDA-MB-231 breast): 9.02 µM | TGI (MDA-MB-231 breast): 28 µM | GI50 (MDA-MB-435): 2.74 µM | TGI (MDA-MB-435): 8.56 µM | GI50 (SF-268 CNS): 7.17 µM | TGI (SF-268 CNS): 34 µM | GI50 (SR leukemia): 1.9 µM | TGI (SR leukemia): 6.56 µM | GI50 (NCI-H522 lung): 2.93 µM | TGI (NCI-H522 lung): 12.2 µM | GI50 (SNB-19 CNS): 9.53 µM | TGI (SNB-19 CNS): 23.2 µM | GI50 (A549 NSCLC): 18.4 µM | TGI (A549 NSCLC): > 100 µM | GI50 (PC-3 prostate): 3.6 µM | TGI (PC-3 prostate): 15.5 µM | GI50 (HT29 colon): 2.15 µM | TGI (HT29 colon): 4.73 µM | GI50 (U251 CNS): 2.18 µM | TGI (U251 CNS): 5.38 µM | GI50 (UACC-62 melanoma): 4.93 µM | TGI (UACC-62 melanoma): 20.3 µM | GI50 (K-562 leukemia): 2.87 µM | TGI (K-562 leukemia): 11.3 µM
